The values that follow come from US9387204B2, “Fused bicyclic imidazoles” (BAYER INTELLECTUAL PROPERTY GmbH, priority 2007, dated 2016).

The test system of one data set is A549 cells. The data set is described as follows: Cellular proliferation/cytotoxicity assay (Alamar Blue), A549 cells. Conditions: Homo sapiens, A549, 72 h, read-out: Anti-proliferative/Cytotoxic activity (A549 cells).
For the compound `Clc1ccn2c(-c3ccccc3)c(-c3ccc(CN4CCC(c5nnc(-c6cccs6)[nH]5)CC4)cc3)nc2c1` [Example 103, 7-chloro-3-phenyl-2-[4-({4-[5-(2-thienyl)-4H-1,2,4-triazol-3-yl]piperidin-1-yl}methyl)phenyl]imidazo[1,2-a]pyridine], the IC50 is less than 10 µM.

For the compound `N#Cc1ccn2c(-c3ccccc3)c(-c3ccc(CN4CCC(c5nnc(-c6ccccc6)[nH]5)CC4)cc3)nc2c1` [Example 118, 3-phenyl-2-(4-{[4-(5-phenyl-4H-1,2,4-triazol-3-yl)piperidin-1-yl]methyl}phenyl)imidazo[1,2-a]pyridine-7-carbonitrile], the IC50 was less than 10 µM.

On to `Cc1ccc2nc(-c3ccc(CN4CCC(c5nnc(-c6ccccc6)[nH]5)CC4)cc3)c(-c3ccccc3)n2n1` [Example 119, 6-methyl-3-phenyl-2-(4-{[4-(5-phenyl-4H-1,2,4-triazol-3-yl)piperidin-1-yl]methyl}phenyl)imidazo[1,2-b]pyridazine], for which the IC50 is less than 10 µM.

With `Clc1ccn2c(-c3ccccc3)c(-c3ccc(CN4CCC(c5nnc(-c6ccccc6)[nH]5)CC4)cc3)nc2c1` [Example 120, 7-chloro-3-phenyl-2-(4-{[4-(5-phenyl-4H-1,2,4-triazol-3-yl)piperidin-1-yl]methyl}phenyl)imidazo[1,2-a]pyridine], the IC50 was less than 10 µM. On the same count and under the same terms, to `c1ccc(-c2nnc(C3CCN(Cc4ccc(-c5nc6ncccn6c5-c5ccccc5)cc4)CC3)[nH]2)cc1` [Example 121, 3-phenyl-2-(4-{[4-(5-phenyl-4H-1,2,4-triazol-3-yl)piperidin-1-yl]methyl}phenyl)imidazo[1,2-a]pyrimidine] belongs less than 10 µM. Regarding `c1ccc(-c2nnc(C3CCN(Cc4ccc(-c5nc6sccn6c5-c5ccccc5)cc4)CC3)[nH]2)cc1` [Example 122, 5-phenyl-6-(4-{[4-(5-phenyl-4H-1,2,4-triazol-3-yl)piperidin-1-yl]methyl}phenyl)imidazo[2,1-b][1,3]thiazole], the IC50 is less than 10 µM. On to `c1ccc(-c2nnc(C3CCN(Cc4ccc(-c5nc6scnn6c5-c5ccccc5)cc4)CC3)[nH]2)cc1` [Example 123, 5-phenyl-6-(4-{[4-(5-phenyl-4H-1,2,4-triazol-3-yl)piperidin-1-yl]methyl}phenyl)imidazo[2,1-b][1,3,4]thiadiazole], for which the IC50 was less than 10 µM. The same measure, in the same setting: to `O=C(O)c1ccn2c(-c3ccccc3)c(-c3ccc(CN4CCC(c5nnc(-c6ccccn6)[nH]5)CC4)cc3)nc2c1` [Example 125, 3-phenyl-2-[4-({4-[5-(pyridin-2-yl)-4H-1,2,4-triazol-3-yl]piperidin-1-yl}methyl)phenyl]imidazo[1,2-a]pyridine-7-carboxylic acid] belongs greater than 10 µM; to `COC(O)c1cn2c(-c3ccccc3)c(-c3ccc(CN4CCC(c5n[nH]c(-c6ccccn6)n5)CC4)cc3)nc2s1` (stereo not shown) [Example 126, methoxy[5-phenyl-6-(4-{[4-(5-pyridin-2-yl-1H-1,2,4-triazol-3-yl)piperidin-1-yl]methyl}phenyl)imidazo[2,1-b][1,3]thiazol-2-yl]methanol], less than 10 µM.

Still in this data set, the particulars now being: read-out: Anti-proliferative/Cytotoxic activity (A549 cells); A549 cells, 72 h, Alamar Blue (Resazurin).
Consider `N#Cc1ccn2c(-c3ccccc3)c(-c3ccc(CN4CCC(c5nnc(-c6cccs6)[nH]5)CC4)cc3)nc2c1` [Example 102, ′3-phenyl-2-[4-({4-[5-(2-thienyl)-4H-1,2,4-triazol-3-yl]piperidin-1-yl}methyl)phenyl]imidazo[1,2-a]pyridine-7-carbonitrile], for which the IC50 was less than 10 µM. For `Cc1ccc2nc(-c3ccc(CN4CCC(c5nnc(-c6ccc[nH]6)[nH]5)CC4)cc3)c(-c3ccccc3)n2n1` [Example 104, ′6-methyl-3-phenyl-2-[4-({4-[5-(1H-pyrrol-2-yl)-4H-1,2,4-triazol-3-yl]piperidin-1-yl}methyl)phenyl]imidazo[1,2-b]pyridazine], the IC50 is less than 10 µM. On the same count and under the same terms, to `Clc1ccn2c(-c3ccccc3)c(-c3ccc(CN4CCC(c5nnc(-c6ccc[nH]6)[nH]5)CC4)cc3)nc2c1` [Example 107, ′7-chloro-3-phenyl-2-[4-({4-[5-(1H-pyrrol-2-yl)-4H-1,2,4-triazol-3-yl]piperidin-1-yl}methyl)phenyl]imidazo[1,2-a]pyridine] belongs less than 10 µM; to `c1ccc(-c2c(-c3ccc(CN4CCC(c5nnc(-c6ccc[nH]6)[nH]5)CC4)cc3)nc3scnn23)cc1` [Example 108, ′5-phenyl-6-[4-({4-[5-(1H-pyrrol-2-yl)-4H-1,2,4-triazol-3-yl]piperidin-1-yl}methyl)phenyl]imidazo[2,1-b][1,3,4]thiadiazole], less than 10 µM; to `c1ccc(-c2c(-c3ccc(CN4CCC(c5nnc(-c6ccc[nH]6)[nH]5)CC4)cc3)nc3sccn23)cc1` [Example 109, ′5-phenyl-6-[4-({4-[5-(1H-pyrrol-2-yl)-4H-1,2,4-triazol-3-yl]piperidin-1-yl}methyl)phenyl]imidazo[2,1-b][1,3]thiazole], less than 10 µM. Consider `N#Cc1ccn2c(-c3ccccc3)c(-c3ccc(CN4CCC(c5nnc(-c6ccc[nH]6)[nH]5)CC4)cc3)nc2c1` [Example 110, ′3-phenyl-2-[4-({4-[5-(1H-pyrrol-2-yl)-4H-1,2,4-triazol-3-yl]piperidin-1-yl}methyl)phenyl]imidazo[1,2-a]pyridine-7-carbonitrile], for which the IC50 is less than 10 µM. Same read-out and setting: as for `c1ccc(-c2c(-c3ccc(CN4CCC(c5cc(-c6ccccn6)n[nH]5)CC4)cc3)nc3ccccn23)cc1` [Example 111, ′3-phenyl-2-(4-{[4-(3-pyridin-2-yl-1H-pyrazol-5-yl)piperidin-1-yl]methyl}phenyl)imidazo[1,2-a]pyridine], the figure is less than 10 µM; as for `c1ccc(-c2c(-c3ccc(CN4CCC(c5cc(-c6ccccn6)[nH]n5)CC4)cc3)nc3scnn23)cc1` [Example 112, ′5-phenyl-6-(4-{[4-(5-pyridin-2-yl-1H-pyrazol-3-yl)piperidin-1-yl]methyl}phenyl)imidazo[2,1-b][1,3,4]thiadiazole], less than 10 µM; as for `c1ccc(-c2c(-c3ccc(CN4CCC(c5cc(-c6ccccn6)[nH]n5)CC4)cc3)nc3sccn23)cc1` [Example 113, ′5-phenyl-6-(4-{[4-(5-pyridin-2-yl-1H-pyrazol-3-yl)piperidin-1-yl]methyl}phenyl)imidazo[2,1-b][1,3]thiazole], less than 10 µM. Still for that read-out and setting: as for `N#Cc1ccn2c(-c3ccccc3)c(-c3ccc(CN4CCC(c5nnc(-c6ccccn6)[nH]5)CC4)cc3)nc2c1` [Example 114, ′3-phenyl-2-(4-{[4-(5-pyridin-2-yl-4H-1,2,4-triazol-3-yl)piperidin-1-yl]methyl}phenyl)imidazo[1,2-a]pyridine-7-carbonitrile], the figure is less than 10 µM; as for `N#Cc1ccn2c(-c3ccccc3)c(-c3ccc(CN4CCC(c5noc(-c6ccccn6)n5)CC4)cc3)nc2c1` [Example 115, ′3-phenyl-2-(4-{[4-(5-pyridin-2-yl-1,2,4-oxadiazol-3-yl)piperidin-1-yl]methyl}phenyl)imidazo[1,2-a]pyridine-7-carbonitrile], greater than 10 µM; as for `c1ccc(-c2c(-c3ccc(CN4CCC(c5noc(-c6ccccn6)n5)CC4)cc3)nc3ncccn23)cc1` [Example 116, ′3-phenyl-2-(4-{[4-(5-pyridin-2-yl-1,2,4-oxadiazol-3-yl)piperidin-1-yl]methyl}phenyl)imidazo[1,2-a]pyrimidine], less than 10 µM. As to `O=C(O)c1cn2c(-c3ccccc3)c(-c3ccc(CN4CCC(c5nnc(-c6ccccn6)[nH]5)CC4)cc3)nc2s1` [Example 127, ′5-phenyl-6-(4-{[4-(5-pyridin-2-yl-4H-1,2,4-triazol-3-yl)piperidin-1-yl]methyl}phenyl)imidazo[2,1-b][1,3]thiazole-2-carboxylic acid], the IC50 was greater than 10 µM.
